In patent US20070053869A1, “Formulation and method for enhancement of gastrointestinal absorption of pharmaceutical agents” (priority 2005, published 2007):
Read-outs that look alike come from different tables or passages of the source.

Assays:
[1] = molecular target: P-gp (Homo sapiens, UniProt P08183); experiment: mitoxantrone accumulation in P-gp MDCK-II cells
From the text: Moreover, to investigate the inhibitory effect of excipients on P-gp, we also performed an intracellular accumulation study for 15 excipients using P-gp MDCK-II cells. Mitoxantrone was again used as the substrate.

[2] = mouse, in vivo
Experimental: (§1) Topotecan (1 mg/kg) was administered orally to wild-type and female bcrp1 KO mice. We then determined the plasma concentration of topotecan as a function of time (FIG. 9).
(§2) We then determined the plasma concentration of topotecan as a function of time.
(§3) Topotecan was also administered intravenously, for comparison. […] We then determined the plasma concentration of topotecan as a function of time.
(§4) The dose of topotecan was 1000 μg/kg of body weight.
(§5) The product of Fa and Fg is presystemic bioavailability for drugs not further metabolized in the liver. […] We determined Fa*Fg using Eh=CLTOT,BLOOD/Qh where Qh is 5.4 (L/h/kg). The fold change relative to wild type control is also presented.

[3] = mouse, in vivo; remark: listed apart in the source
Experimental: as §1, §2, §3, §4, §5

[4] = ratio of topotecan concentration in blood to plasma; details: mouse, blood and plasma; mice; read-out: RB, ratio of topotecan concentration in blood to plasma
[5] = test system: GFP MDCK-II cells; experiment: [3H]-mitoxantrone accumulation in GFP-transduced MDCK-II control cells; format: cell-based
[6] = molecular target: T1, ABCG2 (Homo sapiens, UniProt Q9UNQ0); experiment: [3H]-mitoxantrone accumulation in ABCG2-transduced MDCK-II cells (BCRP MDCK-II)
T1 sequence (Q9UNQ0 1-655): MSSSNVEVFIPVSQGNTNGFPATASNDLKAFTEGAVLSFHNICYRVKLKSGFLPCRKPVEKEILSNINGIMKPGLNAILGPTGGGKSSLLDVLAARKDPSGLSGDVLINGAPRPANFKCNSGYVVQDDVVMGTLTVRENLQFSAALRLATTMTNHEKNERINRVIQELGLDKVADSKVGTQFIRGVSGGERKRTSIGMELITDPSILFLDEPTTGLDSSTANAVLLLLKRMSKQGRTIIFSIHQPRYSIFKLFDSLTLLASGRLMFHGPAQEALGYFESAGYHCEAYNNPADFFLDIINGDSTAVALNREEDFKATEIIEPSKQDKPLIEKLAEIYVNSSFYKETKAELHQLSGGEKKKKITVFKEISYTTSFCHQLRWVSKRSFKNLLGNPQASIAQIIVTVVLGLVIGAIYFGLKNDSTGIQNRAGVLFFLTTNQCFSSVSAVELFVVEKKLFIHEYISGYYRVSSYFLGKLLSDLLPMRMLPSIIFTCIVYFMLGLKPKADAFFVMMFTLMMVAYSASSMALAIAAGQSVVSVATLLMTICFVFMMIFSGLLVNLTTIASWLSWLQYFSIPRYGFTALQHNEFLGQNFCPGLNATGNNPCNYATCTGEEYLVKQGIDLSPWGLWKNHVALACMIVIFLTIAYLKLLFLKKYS
Experimental: Methods: For constructing MDCK-II cells expressing human ABCG2 or green fluorescent protein (GFP), MDCK-II cells were infected with recombinant adenoviruses containing human ABCG2 or GFP cDNA at 48 h prior to the experiments. ABCG2 or GFP-transduced cells were preincubated in prewarmed transport buffer for 15 min. Subsequently, [^3H]-mitoxantrone (MTX) was added in transport buffer to apical compartments. Accumulation of radiolabeled substrates was allowed for 2 h at 37° C. with or without an appropriate concentration of pharmaceutical excipients, 20 μM of GF120918 or 5 μM of PSC833. The reactions were arrested by washing cells with ice-cold transport buffer. Cells were solubilized and then the lysates were transferred to a liquid scintillation counter for measurement of radioactivity.
To abolish the influence of endogenous P-gp, PSC833 (P-gp inhibitor) was added during the incubation for 2 h, except that in the samples treated with GF120918 (a shared ABCG2 and P-gp inhibitor) no PSC833 was added.
The inhibitory effect of excipients on ABCG2 was further characterized in an intracellular accumulation study. MDCK-II cells overexpressing ABCG2 (BCRP MDCK-II) and, as controls, MDCK-II cells overexpressing green fluorescence protein (GFP) (GFP MDCK-II) were prepared. Mitoxantrone was used as the substrate. Intracellular mitoxantrone accumulation in the presence or absence of excipients was determined.
To discover the excipients that can inhibit ABCG2, we performed an intracellular accumulation study using BCRP MDCK-II and GFP MDCK-II cells in the absence or presence of excipients. Mitoxantrone was used as the substrate. To abolish the effect of endogenous P-gp, this experiment was performed in the presence of PSC833. […] All of the excipients were used below their cmc, because above their cmc, excipients form micelles that can interact with the substrate, and as a consequence the effective concentration of mitoxantrone in the experimental medium can decrease.

[7] = reported in literature; cited from earlier work
[8] = molecular target: T1, ABCG2
Experimental: (§6) Measurement of the uptake of [^3H]-estrone-3-sulfate (E1S) was carried out for 11 pharmaceutical excipients at or near their reported critical micelle concentrations using ABCG2-expressing membrane vesicles.
(§7) Eleven of the pharmaceutical excipients of Table 2 were examined for effect on ABCG2 function at their cmc. The inhibitory mechanism of ABCG2 inhibition by pharmaceutical excipients was also investigated. […] The uptake of E1S into these membrane vesicles was examined in the presence and absence of the first eleven excipients of Table 2.
(§8) The IC50 values for these excipients, and their mode of inhibitory action for the function of ABCG2 were evaluated and determined.
(§9) Km and Vmax were calculated for ABCG2 inhibition by excipients at a concentration near the IC50 values. Then, their values were compared to those obtained in the absence of excipient. […] Results are the means±SE (n=3).

[9] = critical micelle concentration by surface tension in a transport buffer; format: physicochemical
From the text: The critical micelle concentration can be measured by a surface tension method,-e.g. using a Tensiometer, or other methods known in the art. Any suitable method known in the art can be used to measure the cmc. In a particular embodiment ASTM D 971 REV A is used.
Therefore, we determined the cmc of the 11 excipients used above, and others, by measuring surface tension in a transport buffer. […] The concentration beyond which there was no further change in surface tension was taken as the cmc.

[10] = test system: GFP/MDCK II cells; experiment: intracellular ATP level, luciferin/luciferase assay, GFP/MDCK II cells; format: cell-based; details: sodium azide 100 mM; P85 copolymer 20 μM; polysorbate 20 250 μM; polyoxyl 35 castor oil 50 μM; sorbitan monolaurate 100 μM; lauryl PEG ether 100 μM; n=3
[11] = molecular target: T1, ABCG2; experiment: [3H]-estrone-3-sulfate (E1S) uptake into ABCG2-expressing membrane vesicles from HEK293 cells
Experimental: as §6, §7, §8, §9

Chain of P-gp (P08183 whole entry): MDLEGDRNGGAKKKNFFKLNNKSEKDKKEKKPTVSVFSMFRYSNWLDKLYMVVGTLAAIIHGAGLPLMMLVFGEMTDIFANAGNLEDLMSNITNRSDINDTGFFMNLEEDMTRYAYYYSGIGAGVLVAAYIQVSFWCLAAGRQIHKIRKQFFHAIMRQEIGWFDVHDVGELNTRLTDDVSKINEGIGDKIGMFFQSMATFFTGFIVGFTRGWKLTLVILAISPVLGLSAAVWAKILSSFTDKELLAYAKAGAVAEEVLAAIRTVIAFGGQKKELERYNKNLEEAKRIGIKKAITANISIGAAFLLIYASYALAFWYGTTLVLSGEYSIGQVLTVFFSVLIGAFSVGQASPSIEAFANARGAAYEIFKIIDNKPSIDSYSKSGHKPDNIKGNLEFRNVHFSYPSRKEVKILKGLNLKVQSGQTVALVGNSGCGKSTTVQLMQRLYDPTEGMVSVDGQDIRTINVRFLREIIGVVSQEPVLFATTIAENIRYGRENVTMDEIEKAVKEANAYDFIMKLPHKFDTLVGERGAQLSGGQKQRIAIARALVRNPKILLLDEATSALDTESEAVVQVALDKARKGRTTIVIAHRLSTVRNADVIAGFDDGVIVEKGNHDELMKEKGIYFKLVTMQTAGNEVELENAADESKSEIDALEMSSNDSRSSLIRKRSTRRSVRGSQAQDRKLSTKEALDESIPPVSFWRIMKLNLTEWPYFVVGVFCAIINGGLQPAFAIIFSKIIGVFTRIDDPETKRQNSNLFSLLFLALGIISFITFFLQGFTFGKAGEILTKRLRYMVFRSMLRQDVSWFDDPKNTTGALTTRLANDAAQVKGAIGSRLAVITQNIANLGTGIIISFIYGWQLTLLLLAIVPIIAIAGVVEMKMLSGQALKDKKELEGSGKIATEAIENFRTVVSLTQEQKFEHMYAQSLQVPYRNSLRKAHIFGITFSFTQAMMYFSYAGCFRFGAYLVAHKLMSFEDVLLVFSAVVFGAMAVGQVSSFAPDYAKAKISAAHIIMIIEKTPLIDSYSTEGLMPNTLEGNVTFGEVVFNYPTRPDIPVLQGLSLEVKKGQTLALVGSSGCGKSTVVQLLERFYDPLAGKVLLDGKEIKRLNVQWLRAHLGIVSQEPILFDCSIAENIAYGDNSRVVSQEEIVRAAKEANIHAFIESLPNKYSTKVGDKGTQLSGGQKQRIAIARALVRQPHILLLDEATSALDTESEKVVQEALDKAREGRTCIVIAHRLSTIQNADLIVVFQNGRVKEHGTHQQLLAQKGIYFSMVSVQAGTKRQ

Compound: Polyoxyethylenesorbitan monolaurate
- mitoxantrone accumulation in P-gp MDCK-II cells (in words) [1]: increased

Compound: Polyoxyethyleneglyceroltriricinoleate 35 [Polyoxyl 35 castor oil]
- mitoxantrone accumulation in P-gp MDCK-II cells (in words) [1]: increased

Compound: CC[C@@]1(O)C(=O)OCc2c1cc1n(c2=O)Cc2cc3c(CN(C)C)c(O)ccc3nc2-1 [topotecan]
- Eh of topotecan [2]: 0.37
- F of topotecan [2]: 0.12
- Fa × Fg of topotecan [2]: 0.19
- Fh of topotecan [2]: 0.63
- CLtot,plasma of topotecan ([2]; po, 1000 ug/kg): 333 mL/min/kg
- Eh of topotecan [3]: 0.22
- F of topotecan [3]: 0.27
- Fa × Fg of topotecan [3]: 0.35
- Fh of topotecan [3]: 0.78
- Fold Change of Fa × Fg relative to wild type control [3]: 1.8
- CLtot,plasma of topotecan ([3]; po, 1000 ug/kg): 86.7 mL/min/kg
- blood plasma ratio [4]: 1.2

Compound: C/C=C/C[C@@H](C)C(=O)[C@H]1C(=O)N[C@@H](C(C)C)C(=O)N(C)CC(=O)N(C)[C@@H](CC(C)C)C(=O)N[C@@H](C(C)C)C(=O)N(C)[C@@H](CC(C)C)C(=O)N[C@@H](C)C(=O)N[C@H](C)C(=O)N(C)[C@@H](CC(C)C)C(=O)N(C)[C@@H](CC(C)C)C(=O)N(C)[C@@H](C(C)C)C(=O)N1C [PSC833]
- mitoxantrone accumulation in GFP MDCK-II cells (in words) ([5]; Example 7, P-gp study, endogenous P-gp): reversed
- initial accumulation of mitoxantrone in GFP MDCK-II cells ([5]; initial time course): slightly increased
- mitoxantrone accumulation in P-gp MDCK-II ([1]; 1 hr (printed 'I hr')): markedly increased
- mitoxantrone accumulation in P-gp MDCK-II cells (in words) ([1]; Example 7): markedly reversed
- initial accumulation of mitoxantrone in P-gp MDCK-II cells ([1]; initial 5 min): significantly increased

Compound: Polyoxyethylenesorbitan monooleate
- inhibition of ABCG2 in the intact cell assay [6]: did not inhibit ABCG2
- mitoxantrone accumulation in P-gp MDCK-II cells (in words) [1]: increased

Compound: CCCCCCCCCCCCO[C@@H]1O[C@H](CO)[C@@H](O[C@H]2O[C@H](CO)[C@@H](O)[C@H](O)[C@H]2O)[C@H](O)[C@H]1O [LM, n-dodecyl-β-D-maltopyranoside]
- Reference cmc [7]: 170 µM
- effect on ABCG2-mediated E1S uptake into vesicles (in words) [8]: less or no effect
- Measured cmc [9]: 688 µM

Compound: COc1cc2c(cc1OC)CN(CCc1ccc(NC(=O)c3cccc4c(=O)c5cccc(OC)c5[nH]c34)cc1)CC2 [GF120918]
- accumulation of MTX in GFP-transduced cells (in words) ([5]; Example 1, 20 μM GF120918, 2 h): no consistent effect
- initial accumulation of mitoxantrone, BCRP versus GFP MDCK-II cells [6]: no significant difference
- accumulation of MTX in ABCG2-transduced cells compared to control ([6]; human, 2 h, 20 μM): 1.4 times

Compound: Sorbitan monolaurate
- mitoxantrone accumulation in BCRP MDCK-II cells (in words) ([6]; Example 7, excipients below their cmc, in the presence of PSC833): significantly increased
- Reference cmc [7]: 100 µM
- intracellular ATP, GFP/MDCK II [10]: 132.8 ± 3.6 nmol/mg protein
- mitoxantrone accumulation in P-gp MDCK-II cells (in words) ([1]; Example 7): increased

Compound: CCCCCCCCCCCCOCCOCCOCCOCCO [Polyoxyl 4 lauryl ether, Lauryl polyethylene glycol ether]
- IC50 [11]: 77.5 ± 4.1 µM

Compound: Sorbitan monopalmitate
- Reference cmc [7]: 200 µM

Compound: Sorbitan monooleate
- Reference cmc [7]: 100 µM

Compound: Polyoxyethyleneglyceroltrihydroxystearate [Polyoxyl 40 hydrogenated castor oil]
- mitoxantrone accumulation in P-gp MDCK-II cells (in words) [1]: increased
